Values quoted from earlier work as cited in patent US20030109670A1, “Cone snail peptides” (University of Utah Research Foundation, priority 2001, published 2003).
Ends that are not written are not given here.

How the values were obtained:
[1] = IBS patients
[2] = in vivo
[3] = in vivo; remark: listed apart in the source

## Cc1[nH]cnc1CN1CCc2c(c3ccccc3n2C)C1=O [Alosteron]
[1]
  perception of colonic distension and gut compliance: active in modifying the perception of colonic distension and gut compliance
[1]; phase III compound
  abdominal pain, colonic transit, colon compliance: reduce abdominal pain, slow colonic transit and increase colon compliance

## CSCC[C@@H]1NC(=O)[C@H](CC(C)C)NC(=O)[C@H](CCCNC(=N)N)NC(=O)[C@H](CO)NC(=O)[C@@H]2CSSC[C@@H]3NC(=O)[C@H](CO)NC(=O)CNC(=O)[C@H]([C@@H](C)O)NC(=O)[C@H](CSSC[C@H](N)C(=O)N[C@@H](CCCCN)C(=O)NCC(=O)N[C@@H](CCCCN)C(=O)NCC(=O)N[C@@H](C)C(=O)N[C@@H](CCCCN)C(=O)N2)NC(=O)[C@H](CSSC[C@@H](C(N)=O)NC(=O)[C@H](CCCCN)NC(=O)CNC(=O)[C@H](CO)NC(=O)[C@H](CCCNC(=N)N)NC3=O)NC(=O)[C@H](CC(=O)O)NC(=O)[C@H](Cc2ccc(O)cc2)NC1=O [ω-Conotoxin MVIIA]
[2]
  potency relative to morphine: approximately 1000 times
  tolerance or addictive properties: does not produce the tolerance or addictive properties of opiates

## Contulakin-G: 16 amino acid O-linked glycopeptide from Conus geographus, agonist of neurotensin receptors (QSEEGGSNATKKPYIL; also: O-linked glycan, site not given here; UniProt Q9XYR5 51-66, looked up)
[3]
  potency in inhibiting pain relative to neurotensin: significantly more potent than neurotensin
